Experimental data as given in PMC10384408, “Anticancer Tungstenocenes with a Diverse Set of (O,O–), (O,S–) and (O,N–) Chelates—A Detailed Biological Study Using an Improved Evaluation via 3D Spheroid Models” (Pharmaceutics, 2023).

Key:
MCF-7 cells [1] = assay: Resazurin assay, MCF-7 2D monolayer; type: cell-based, human; conditions: 96 h
Experimental: (§1) CH1/PA-1 (ovarian teratocarcinoma), SW480 (colon carcinoma) and A549 (non-small cell lung cancer) cells were maintained as described in the reference. IMR-90 human fetal lung fibroblasts (from the European Collection of Authenticated Cell Cultures, Porton Down, Salisbury, UK) were cultured in Stable Cell^TM DMEM/F12 supplemented with 0.01 mg/mL human recombinant insulin (both purchased from Sigma-Aldrich) and 10% fetal bovine serum (FBS, BioWest, Nuaillé, France). Human colon carcinoma cell lines HCT116 and HT29 (both kindly provided by the Institute of Cancer Research, Department of Medicine I, Medical University of Vienna, Austria) were cultured in McCoy’s 5a medium supplemented with 4 mM L-glutamine (both purchased from Sigma-Aldrich) and 10% FBS. MCF-7 human breast adenocarcinoma cells (kindly provided by M. Ogris, Department of Pharmaceutical Sciences, University of Vienna, Austria) were maintained in DMEM (high glucose) supplemented with 4 mM L-glutamine, 0.1 mg/mL human insulin (all purchased from Sigma-Aldrich) and 10% FBS. All cell lines were grown as monolayers in 75 cm^2 culture flasks (CytoOne, Starlab, Hamburg, Germany) at 37 °C in a humidified atmosphere containing 5% CO2.
(§2) For the resazurin assay in monolayer cultures, cells were seeded into 96-well microculture plates (CytoOne, tissue culture treated, Starlab, Hamburg, Germany) in densities of 2 × 10^3 HCT116, 2 × 10^3 HT29 and 4 × 10^3 MCF-7 cells per well (each in 100 µL). For tests in 3D cultures, spheroids were grown as described above. After 24 h (for monolayers) or 4 days (for spheroids) the test compounds in the appropriate medium were added in serial dilution to the plates to obtain a total volume of 200 µL/well. Wells without cells, containing medium and resazurin (Alfa Aesar, Thermo Fisher, Kandel, Germany) solution were used as blanks. After 96 h exposure 20 µL of the resazurin solution (440 µM) were added to each well, followed by a 4 h (2D) or 12 h (3D) incubation period. Resorufin fluorescence was quantified at 530 nm (and a reference wavelength of 620 nm) by using a microplate reader (Synergy HT, BioTek) with Gen5^TM 3.10 software (BioTek).

MCF-7 cells [2] = assay: Annexin V-FITC/PI apoptosis assay, MCF-7; conditions: MCF-7, 24 h, 200 µM
[3] = system: MCF-7 multicellular tumor spheroids; assay: Resazurin assay, MCF-7 3D spheroids; type: cell-based, human; conditions: 96 h; for IC50: spheroids
Experimental: as §1
(§3) For growing multicellular tumor spheroids, 400 HCT116, 400 HT29 or 800 MCF-7 cells per well were plated into round-bottom ultra-low attachment 96-well plates (Corning, Glendale, AZ, USA) in the media described above and incubated at 37 °C for 96 h. Spheroids were treated with 10 µM of the two most cytotoxic compounds 3 and 4 for another 96 h. The diameters of the spheroids were measured with Cell^F software under a CKX41 Olympus microscope before treatment and in constant daily intervals over the 96 h treatment period. For statistical analysis the t-test with Welsh’s correction was implemented in GraphPad Prism software (Version 6.01).
as §2

[4] = system: HCT116 multicellular tumor spheroids; assay: Resazurin assay, HCT116 3D spheroids; type: cell-based, human; conditions: 96 h; for IC50: spheroids
Experimental: as §1, §3, §2

[5] = system: HT29 multicellular tumor spheroids; assay: Resazurin assay, HT29 3D spheroids; type: cell-based, human; conditions: 96 h; for IC50: spheroids
Experimental: as §1, §3, §2

[6] = Cyclic voltammetry in MeCN (W(IV) to W(V)); type: physicochemical; conditions: vs. NHE, scan rate 200 mV/s
Experimental: NMR spectra were recorded with a Bruker FT-NMR Avance III^TM 500 MHz spectrometer at 500.10 (^1H), and 125.75 MHz (^13C) using DMSO–d6. 2D-NMR measurements were recorded utilizing standard pulse programs COSY, HSQC and HMBC. The Microanalytical Laboratory of the University of Vienna performed the elemental analyses with a Eurovector EA 3000(2009) equipped with a high temperature pyrolysis furnace (HT, Hekatech, Germany, 2009). Elemental analyses’ samples were weighed (weights from 1–3 mg were used) on a Sartorius SEC 2 ultra-micro balance with ±0.1 µg resolution. Two NIST-certified reference materials were used for calibration: sulfanilamide (C6H8N2O2S) and BBOT (2,5-bis-(5-tert-butyl-2-benzoxazol-2-yl)-thiophenone, C26H26N2O2S). The limit of quantification (LOQ) was 0.05 w% for C, H, N and 0.02 w% for S. For samples without N and/or S, the content of these elements was determined and verified to be below the LOQ. X-ray diffraction analyses were carried out on a Bruker X8 APEX II CCD diffractometer at 100 K. ESI-MS were recorded on a Bruker AmaZon SL ion trap mass spectrometer (Bruker Daltonics GmbH). Data were obtained and processed with Compass 1.3 and Data Analysis 4.0 (Bruker Daltonics GmbH). Infrared spectra were attained on a Bruker Vertex 70 FT-IR-spectrometer with an ATR-unit (attenuated total reflection unit) in the range of 4000–600 cm^−1. Intensities of the reported bands are described with w for weak, m for medium and s for strong; broad signals are additionally specified with the letter b in front of these abbreviations. Cyclic voltammograms (CVs) were measured in a three-electrode cell using 2 mm diameter glassy carbon disk working electrode, a platinum auxiliary electrode and an Ag|Ag^+ reference electrode containing 0.1 M AgNO3. Measurements were carried out at room temperature using an EG&G PARC potentiostat/galvanostat 273A. The solutions were deoxygenized by purging a stream of argon for 3 min through the solution and the experiment was performed under an argon atmosphere. The potentials were measured in a freshly prepared solution of (n Bu4N)[BF4] (0.1 M) in acetonitrile using ferrocene (Fe(η^5-C5H5)2) (E1/2 = +0.72 V vs. NHE) as an internal standard and are quoted relative to the normal hydrogen electrode (NHE).
The electrochemical behavior of all complexes and the precursor Cp2WCl2 was studied by cyclic voltammetry with a scan rate of 200 mV/s, from −0.5 to +1.2 or +1.5 V. Measurements were performed in triplicate. Due to low water solubility of compounds 1–10 acetonitrile (MeCN) was utilized in order to reach the 2 mM concentration.

Structure (SMILES) | IC50 (MCF-7 cells [1]) [µM] | early apoptotic cells [%] AV+ / PI- (MCF-7 cells [2]) [%] | late apoptotic cells [%] AV+ / PI+ (MCF-7 cells [2]) [%] | necrotic cells [%] AV- / PI+ (MCF-7 cells [2]) [%] | viable cells [%] AV- / PI- (MCF-7 cells [2]) [%] | ∑apoptotic cells [%] (MCF-7 cells [2]; sum of early and late) | IC50 [3] [µM] | IC50 [4] [µM] | IC50 [5] [µM] | E1/2 [6] [V] | ratio 3D/2D of IC50 values, MCF-7 [3] | ratio 3D/2D of IC50 values, HCT116 [4] | ratio 3D/2D of IC50 values, HT29 [5]
Cc1cc(=S)c([O-])co1.F[P-](F)(F)(F)(F)F.[W+4].c1cc[cH-]c1.c1cc[cH-]c1 [Compound 8, Bis(η^5-cyclopentadienyl)[2-methyl-5-(oxo-κO)-pyran-4-(1H)-thionato-κS] tungsten(IV) hexafluorophosphate] | 163 ± 32 | 1.2 ± 0.3 | 8.7 ± 6.9 | 2.7 ± 1.4 | 87.3 ± 8.3 | 9.9 | > 200 | 178 ± 14 | > 200 | 1.080 | – | – | –
CCc1occc(=O)c1[O-].F[P-](F)(F)(F)(F)F.[W+4].c1cc[cH-]c1.c1cc[cH-]c1 [Compound 9, Bis(η^5-cyclopentadienyl)[2-ethyl-3-(oxo-κO)-4-(1H)-pyran-4-ato-κO] tungsten(IV) hexafluorophosphate] | 147 ± 15 | 1.6 ± 1.0 | 8.4 ± 5.5 | 2.9 ± 1.8 | 87.2 ± 7.2 | – | > 200 | > 200 | > 200 | 1.038 | – | – | –
CCc1occc(=S)c1[O-].F[P-](F)(F)(F)(F)F.[W+4].c1cc[cH-]c1.c1cc[cH-]c1 [Compound 10, Bis(η^5-cyclopentadienyl)[2-ethyl-3-(oxo-κO)-4-(1H)-pyran-4-thionato-κS] tungsten(IV) hexafluorophosphate] | 29 ± 4 | 5.5 ± 3.2 | 46.3 ± 3.2 | 32.4 ± 12.3 | 15.7 ± 6.0 | – | > 200 | 69 ± 12 | > 200 | 1.064 | > 6.9 | 1.6 | > 3.7
